Assay results reported in US20080193519A1, “Galenic Applications of Self-Emulsifying Mixtures of Lipidic Excipients” (Aventis Pharma S.A., priority 2004, published 2008).
In brackets after ≈: the same amount, converted by molar mass. Like-named read-outs stand apart in the source and are kept apart here.

Tests used:
[1] = Protocol: 10 mg of molecule A are added per 1 ml of aqueous solution.
The suspensions are stirred at 25° C. for 24 hours and are then centrifuged. The amount of molecule A in the supernatant is determined by HPLC and the pH of the supernatant is checked.
The apparent solubility of molecule A in the various oils, surfactants, cosurfactants, DMSO and glycofurol was also determined. Small amounts of molecule A are added to 1 g of each vehicle. Dissolution is carried out by ultrasound treatment at 25° C. Dissolution is confirmed visually and by optical microscopy. The solubility is estimated to within about 1 mg.

[2] = Stability of molecule A in human duodenal liquid; assay type: in vitro ADME; details: FIG. 5
Protocol: For each stability test, the necessary volume of a sample of human duodenal liquid frozen immediately after withdrawal is defrosted. Centrifuging at 1000 g for 15 min removes the substances resembling mucus. The pH of the supernatant is adjusted to 6.40 by addition of MES buffer (1250 mM in PBS-CMF), a value similar to the mean value of the pH of the fresh duodenal liquid.
Molecule A is dissolved in DMSO and either diluted directly in HESS/HEPES buffer (control) or prepared in the formulations before dilution in HBSS/HEPES in order to obtain a microemulsion. The final concentration in both cases is 10^−4M.
The formulations, preheated to 37° C., are added to the duodenal liquid, maintained at 37° C., in a 1/1 (v/v) ratio and are immediately mixed, in order for the final concentration of molecule A to be 5×10^−5M.
At T=0 (immediately after mixing) and at T=5, 10, 15, 30, 60, 90 and 120 minutes, […] samples of each preparation are withdrawn and mixed with the same volume of acetone at 4° C. to halt the enzymatic reaction. The samples were subsequently centrifuged (1000 g for 5 min) and the supernatant is tested by a validated LC/MS/MS method.

[3] = from a suspension
[4] = system: Caco-2/TC7 clone cells
Protocol: (§1) The Caco-2 strains used in the tests are Caco-2/TC7 clone cells.
(§2) In order to evaluate the scale of permeability of molecule A dissolved in DMSO as a function of the concentration, two solutions are prepared. The first, to which molecule A labelled with ^14C will be added, is 4.3×10^−2M; the second, to which ^14C-mannitol will be added, is 5×10^−2M.
(§3) These DMSO solutions are subsequently diluted in a 25 mM HBSS/HEPES buffer (pH 7.4) to which 0.4 μCi/ml of ^14C-mannitol or 0.4 μCi/ml of molecule A labelled with ^14C has been added (corresponding to 7 μM), so as to obtain final concentrations of molecule A of 7, 10, 50 or 100 mM.
(§4) The final concentration of DMSO in each donor solution is adjusted to 0.5%.
(§5) Donor solutions comprising 0.5% DMSO but comprising no compound are used as controls.
(§6) To analyse the role of P-glycoprotein in the mechanism of the transport of molecule A, donor solutions comprising 10 mM of molecule A and 100 mM of verapamil, nicardipine or progesterone are prepared and the permeability of molecule A is evaluated and compared with that obtained without the P-glycoprotein modulator.
(§7) To study the effects of glycofurol and of macrogol 300 on the permeability of molecule A: • Molecule A is dissolved in glycofurol in order to obtain 4.3×10^−3M or 5×10^−3M solutions. These are subsequently diluted in the HBSS/HEPES buffer to which 0.4 μCi/ml of ^14C-mannitol or 0.4 μCi/ml of molecule A labelled with ^14C has been added (see above), in order to obtain donor solutions for which the final concentration of molecule A is 50 μM and the final content of glycofurol is 1%. • Molecule A is dissolved in macrogol 300 in order to obtain 0.3×10^−3M or 10^−3M solutions.
(§8) Before any formulation, molecule A is dissolved in DMSO or glycofurol in order to obtain, in each solvent, solutions with concentrations of 4.3×10^−3M or 5×10^−3M. 40 μCi/ml of molecule A labelled with ^14C are added to the 4.3×10^−3M solutions, so that the theoretical concentration of molecule A is 5×10^−3M. 40 μCi/ml of ^14C-mannitol are added to the 5×10^−3M solutions.
(§9) Each of the solutions thus obtained is subsequently diluted in the mixtures under consideration of lipid excipients and of surfactants and, if appropriate, of cosurfactants, giving formulations comprising the solvent (DMSO or glycofurol) at 10% and molecule A at 5×10^−4M.
(§10) These formulations are diluted in 25 mM HBSS/HEPES buffer to give the donor solutions, the final concentration of molecule A of which is 5×10^−5M, which comprise 0.4 μCi/ml of molecule A labelled with 14C or else 0.4 μCi/ml of 14C-mannitol, and the proportion of lipid excipient of which is less than 1%. […]

[5] = in vitro; details: human, Caco-2, pH 7.4
Protocol: as §1, §2, §3, §4, §5, §6, §7, §8, §9, §10

[6] = system: Caco-2/TC7 clone cells; assay: Transport (apparent permeability AB/BA) through Caco-2 cell monolayers; details: solvents used to prepare the formulations (FIG. 3)
Protocol: as §1, §2, §3, §4, §5, §6, §7, §8, §9, §10

CCOC(=O)[C@H](CNC(=O)c1ccc(CCC(=O)NC2=NCCCN2)cc1)NS(=O)(=O)c1cccc2ccccc12 [molecule A, ethyl ester of (2S)-2-(naphthyl-1-sulphonylamino)-3-(4-(2-(1,4,5,6-tetrahydropyrimidin-2-ylcarbamoyl)ethyl)-benzoylamino)propionic acid]
solubility ([1]; aqueous medium at physiological pH of the intestines): 400 µg/mL (≈ 0.69 mM) | solubility ([1]; in glycofurol): 6000 µg/mL (≈ 10.4 mM) | solubility ([1]; in macrogol 300): 2000 µg/mL (≈ 3.45 mM) | stability in human duodenal liquid (in words) [2]: unstable | absolute bioavailability [3]: less than 1% | absorption of the active principle orally [3]: less than 1%

O=C(CCCOc1ccc(C[C@H](NC(=O)OCc2ccccc2)C(=O)O)cc1)NC1=NCCCN1 [molecule B, (2S)-2-benzyloxycarbonylamino-3-(4-(3-(1,4,5,6-tetrahydropyrimidin-2-ylcarbamoyl)propyloxy)phenyl)-propionic acid]
efflux by P-glycoprotein (in words) ([4]; Caco-2): undergoes efflux by P-glycoprotein | increase in the transport in the AB direction by a factor, with respect to 0.5% DMSO ([4]; human, Caco-2, 120 min, pH 7.4): 5.9 | Papp B→A at 120 min [5]: 2.1 ×10⁻⁶ cm/s

glycofurol
effect of the solvent on the Papp values of molecule A [6]: no effect
